Assays:
CD326+ IECs = assay: IEC viability assay with or without irradiation (6 Gy); format: cell-based, mouse; details: ex vivo
Procedure: Primary intestinal epithelial cells (IECs) were obtained from C57BL/6J mice as described previously (Lefrangois, L. & Lycke, N. Isolation of Mouse Small Intestinal Intraepithelial Lymphocytes, Peyer's Patch, and Lamina Propria Cells. (John Wiley & Sons, Inc., 2001)). Briefly, luminal contents of intestine were flushed with CMF solution. Intestine was then minced into 0.5 cm pieces, washed with CMF four times, transferred to CMF/FBS/EDTA, and incubated at 37° C. for 60 minutes (shaking tubes every 10 minutes). Supernatant containing IECs was then transferred through […] cell filter followed by incubation on ice for 10 minutes to allow sedimentation. Supernatant was again transferred through a 75 μM cell filter. CD326+ IECs were next purified utilizing either FACS or anti-APC magnetic microbeads (Miltenyi Biotec Ltd., Auburn, Calif.) and an autoMACs (Miltenyi Biotec). […]
The potential mechanisms that contribute to butyrate-induced protection from severe GVHD were explored. […] The ability of butyrate-treated IECs to withstand damage mediated by alloreactive T cells was determined by isolating and culturing primary IECs with butyrate or vehicle control, overnight. […] Because butyrate is a primary energy source for IECs 1-13, it was next determined whether butyrate enhances survival and growth of IECs in vitro. […]

[1] = system: CD326+ intestinal epithelial cells (IECs); assay: Western blot / qPCR of CD326+ IECs isolated from BMT recipients; format: in vivo, mouse
Procedure: CD326+ purified IECs were harvested from animals that received syngeneic (BALB/c→BALB/c) or allogeneic (C57BL/6J→BALB/c) BMT. Whole cell lysates were next obtained and protein concentrations determined with Pierce BCA Protein Assay (Thermo Scientific). Equal amounts of protein (20 μg) were separated by SDS-PAGE gel electrophoresis (120V, 1.5 h) and subsequently transferred to polyvinylidene difluoride (PVDF) membrane using a Bio-Rad semi-dry transfer cell (Hercules, Calif.) (20V, lh). The following antibodies were used to analyze the membranes with dilutions in accordance with the manufacturers specification sheet: α-tubulin (Cell Signaling, clone 11H10), Acetyl histone H4 (Lys5/8/12/16) (EMD Millipore, clone 3HH-4C10), SLC5A8 (abcam), GPR43 (abcam), Occludin (abcam, clone EPR8208), JAM (abcam, clone EP1042Y), and Claudin 5 (abcam). Secondary anti-rabbit antibody conjugated to HRP (Jackson ImmunoResearch, Cat No. 111-035-003) was used to detect primary antibodies, where needed. Densitometric analysis was performed using ImageJ software (National Institutes of Health; Bethesda, […].).
mRNA was isolated from samples using RNeasy kit following manufacturers instructions (Qiagen; Venlo, Netherlands). Using 1 μg of each mRNA template, cDNA was synthesized using SuperScript VILO (Invitrogen; Carlsbad, Calif.). qPCR primers were designed for murine targets. All primers were verified for the production of a single specific PCR product using a melting curve program and are shown below in Table 2.
It was next determined if the reduced amount of butyrate in IECs could be restored in vivo and further, whether this would have a functional impact on histone acetylation. In addition to utilizing transporters, butyrate can also diffuse across the mucosal barrier into IECs when present in high concentrations (Ganapathy, V., Thangaraju, M., Prasad, P. D., Martin, P. M. & Singh, N. Transporters and receptors for short-chain fatty acids as the molecular link between colonic bacteria and the host. Curr Opin Pharmacol 13, 869-874 (2013); Charney, A. N., Micic, L. & Egnor, R. W. Nonionic diffusion of short-chain fatty acids across rat colon. Am. J Physiol. 274, G518-24 (1998)). Therefore, it was hypothesized that administration of high amounts of butyrate locally would restore histone acetylation of IECs, in vivo. To test this, C57BL/6J cells were transferred to Balb/c mice and administered vehicle or butyrate via daily intragastric gavage.
To determine if these are involved in in vivo protection from GVHD, the expression of pro- and anti-apoptotic proteins as well as junctional proteins in IECs isolated 21 days following allo-BMT was determined. […] Overall, the results identify several ways in which butyrate can directly enhance epithelial cell function ranging from protection from irradiation and allo-T cell mediated apoptosis to proliferation and junctional protein expression, both in vitro and in vivo.

[2] = 21 days following allo-BMT, intragastric butyrate

CCCC(=O)[O-].[Na+] [butyrate, sodium butyrate]
irradiation-induced apoptosis of IECs (CD326+ IECs; irradiation 6 Gy): conferred protection | toxicity to IECs (CD326+ IECs; no irradiation): not toxic | gene expression of junctional proteins in IECs ([1]; 21 days following allo-BMT, butyrate treated animals): similarly increased | BCL-B (Bcl2110) expression in IECs [1, 2]: increased | transcripts of Bak1 in IECs [1, 2]: significantly decreased | transcripts of Bax in IECs [1, 2]: significantly decreased | acetylation of histone H4 in IECs ([1]; C57BL/6J→Balb/c, daily intragastric butyrate for 21 days, vs untreated allo-BMT recipients): significantly restored | butyrate transporter SLC5A8 in IECs ([1]; daily intragastric gavage of butyrate): increase | protein amounts of Occludin, JAM and Claudin 5 (immunoblot) ([1]; recipients of allo-BMT treated with intragastric butyrate): increased junctional proteins

From US11260083B2, “Compositions and methods for treating and preventing graft versus host disease” (The Regents of the University of Michigan, priority 2016, dated 2022)
